No end group written: not given here.
Key:
[1] = system: abdominal adhesions post-surgery; conditions: Ward et al. 2011; cited from earlier work
[2] = system: bleomycin-induced pulmonary fibrosis; conditions: Vittal et al. 2013; cited from earlier work
C57BL/6 mice = assay: Survival analysis (Kaplan-Meier) after permanent LAD ligation or daily peptide; format: in vivo, mouse
Excerpt: Nature Medicine. […] Nature. 2012; 485:593-8]. […] Proc Natl Acad Scie USA. […] Circulation Res. 2009; 105:80-8].
SigmaPlot (Systat Software, Inc., San Jose, Calif.) was used to determine significant statistical differences using a Log-rank (Mantel-Cox) test to determine differences in survival or a Kruskal-Wallis one-way ANOVA for both in vivo and in vitro studies at each terminal time point in experiments run in parallel. If significance was reached (p<0.05), a post-hoc all pairwise Multiple Comparison Procedures (Tukey Test) was performed between each of the groups to determine significance. Significance was defined as p<0.05.

MK2 [3] = assay: Immunoblot analysis of MK2 activity (HNRNPA0, total MK2, p-MK2) in HL1 cells; format: cell-based, mouse
Method: (§1) Cells were rinsed in PMS and grown in DMEM (cat. #11966-025, Gibco) for 2 hours prior to initiating hypoxia (simulated ischemia). Hypoxia was induced by placing cells in a hypoxia chamber ([…] 150i, Thermo Scientific) in a mixture of 5% CO2/95% N2 to attain a 1% oxygen concentration, according to the manufacturer's instruction. […] The MMI-0100 peptide was added to the cells at the start of the ischemia time. Cells were cultured in 12 well plates. At the time of performing the experiments, all cultures were approximately 70-90% confluent. Three different time points were adopted for each of the three cell lines according to the severity of cell death under hypoxia determined by LDH release: for H9C2 cell line: 8 hr; 16 hr; 24 hr; for HL-1 cell line: 4 hr; 8 hr; 12 hr; for cardiac fibroblast cell line: 16 hr; 32 hr; 48 hr.
(§2) The left over cell lysates from the Caspase activity assay were used for the Western blots. […] After blocking with recommended blocking reagents for 1 h at the room temperature, the membranes were incubated overnight at 4° C. with primary antibodies in TBS-T, and then incubated with secondary antibodies conjugated with HRP in TBS-T. HNRNPA0, MAPK2, and phospho-MAPK2 proteins were detected using anti-HNRNPA0 (cat. #HPA036569, 1:1000, Sigma-Aldrich), anti-MAPKAPK2 (cat. #SAB4300553, Sigma-Aldrich), and anti-phospho-MAPKAPK2 (cat. #SAB4300241, 1:1000, Sigma-Aldrich). […]

H9C2 cells = assay: Caspase 3/7 activity in H9C2 cells challenged with 1% hypoxia; format: cell-based, rat; conditions: 100 μM, 16 and 24 hours
Method: H9C2 is a myoblast cell line derived from rat myocardium obtained from ATCC® (CRL-1446, ATCC, Manassas, Va.) and cultured according to the recommended protocols. Briefly, cells were maintained at 37° C. with 5% CO2 in DMEM supplemented with 10% fetal bovine serum and antibiotics (100 U/ml penicillin, […] streptomycin) and split at a ratio of 1:4 using 0.05% trypsin every 36 hours. […]
Cells were rinsed in PMS and grown in DMEM (cat. #11966-025, Gibco) for 2 hours prior to initiating hypoxia (simulated ischemia). […] Three different time points were adopted for each of the three cell lines according to the severity of cell death under hypoxia determined by LDH release: for H9C2 cell line: 8 hr; 16 hr; 24 hr; for HL-1 cell line: 4 hr; 8 hr; 12 hr; for cardiac fibroblast cell line: 16 hr; 32 hr; 48 hr.
Cell death was first determined using an LDH release assay (cat. #630117, Clontech), according to the manufacturer's instructions. […] Caspase 3/7 activity was next determined using a commercial Caspase 3/7 activity kit (Cat. #G8091, Promega, Madison, Wis. 53711) in a 384 well plate (Cat. #781903, Greiner bio-one) according to the manufacturer's instructions. […] The resulting cell lysates (25 μl, with 0.6 ug total protein) and Caspase-Glo 3/7 Reagent were added to each well in a 1:1 ratio and the luminescence was read (CLARIOstar, BMG LABTECH GmbH). […]

MK2 [4] = assay: Immunoblot analysis of MK2 activity (HNRNPA0, total MK2, p-MK2) in primary cardiac fibroblasts; format: cell-based, rat
Method: as §1, §2

YARAAARQARAKALARQLGVAA [MMI-0100]
abdominal adhesions post-surgery [1]: inhibiting | inflammation and fibrosis in bleomycin-induced pulmonary fibrosis [2]: inhibits inflammation and fibrosis | survival after AMI with or without MMI-0100 treatment (C57BL/6 mice; AMI mice, daily intraperitoneal dosing, 14 days): no differences in survival | effect on survival, MMI-0100 alone (C57BL/6 mice; mice without AMI, daily MMI-0100 intraperitoneally vs PBS): did not have any effect | HNRNPA0 protein expression (MK2 [3]; 100 μM, 4 and 8 hours after induction by hypoxia): inhibited | total MK2 and p-MK2 protein levels (MK2 [3]; 20 or 100 μM, 1% hypoxia): not changed | caspase 3/7 activity (H9C2 cells): inhibited | protein levels of MK2 and p-MK2 (MK2 [4]; compared to hypoxia alone): did not significantly differ | MK2 activity, as measured by HNRNPA0 protein levels (MK2 [4]; hypoxia, 16, 32, or 48 hours): did not change

Reference: patent publication US10336788B2, “Inhibition of cardiac fibrosis in myocardial infarction” (Moerae Matrix, Inc., priority 2014, dated 2019)
